Results from patent publication US7541472B2 (priority 2004, dated 2009).

Legend:
Test in all cases: microbe, parasite or virus in culture
Type in all cases: cell-based
Stagonospora nodorum = conditions: for IC50: Parastagonospora nodorum, read-out: IC50 S. nodorum
Phytophthora infestans = conditions: for IC50: Phytophthora infestans, read-out: IC50 P. infestans; for IC50 P. infestans: fungal growth on 1.5% agar minimal media, 20° C., 3-5 days, 3-fold serial dilutions, C.V. class in parentheses
Septoria tritici = conditions: for IC50: Zymoseptoria tritici, read-out: IC50 S. tritici
Botrytis cinerea = conditions: read-out: IC50 B. cinerea

Row | SMILES | IC50 S. nodorum (Stagonospora nodorum) | IC50 (Phytophthora infestans) | IC50 S. tritici (Septoria tritici) | IC50 (Botrytis cinerea) | IC50 (Stagonospora nodorum) | IC50 P. infestans (Phytophthora infestans) | IC50 (Septoria tritici)
1 | C=C(C(=O)OCc1ccc(Oc2cccc(Cl)c2)cc1)C(O)c1cccnc1 (stereo not drawn) [Compound 24, 4-(3-Chlorophenoxy)phenylmethyl β-hydroxy-α-methylene-3-pyridinepropanoate] | C (c) | 16 to 25 µM | A (d) | > 25 µM | – | – | –
2 | C=C(C(=O)OCc1ccc(Oc2ccccc2)cc1)C(O)c1cccnc1 (stereo not drawn) [Compound 28, 4-Phenoxyphenylmethyl β-hydroxy-α-methylene-3-pyridinepropanoate] | – | – | – | – | 6 to 15 µM | B (a) | < 5 µM
3 | C=C(C(=O)OCc1ccc(Cl)c(Cl)c1)C(O)c1nccs1 (stereo not drawn) [Compound 4, 3,4-Dichlorophenylmethyl β-hydroxy-α-methylene-2-thiazolepropanoate] | C (b) | – | B (b) | < 5 µM | – | B (d) | –
4 | O=C(OCc1cccc(C(F)(F)F)c1)/C(=C\c1ccccc1)C(O)c1cccnc1 (stereo not drawn) [Compound 5, 3-(Trifluoromethyl)phenylmethyl Z-α-(α-hydroxy-3-pyridylmethyl)-3-phenylpropenoate] | A (b) | > 25 µM | A (b) | > 25 µM | – | – | –
5 | C=C(C(=O)OCc1ccc(Oc2ccccc2)cc1)C(O)c1nccs1 (stereo not drawn) [Compound 30, 4-Phenoxyphenylmethyl β-hydroxy-α-methylene-2-thiazolepropanoate] | – | – | – | 16 to 25 µM | > 25 µM | A (b) | 6 to 15 µM
6 | C=C(C(=O)Oc1ccc(Cl)cc1)C(O)c1cccnc1 (stereo not drawn) [Compound 19, 4-Chlorophenyl β-hydroxy-α-methylene-3-pyridinepropanoate] | C (c) | – | A (c) | > 25 µM | – | A (c) | –
